Test results published in US20110318277A1, “TACROLIMUS COMPOSITIONS FOR AEROSOL ADMINISTRATION” (APT Pharmaceuticals, Inc. University of Maryland, Baltimore, priority 2010, published 2011).

Assays:
[1] = Solubility of tacrolimus in ethanol and hydrofluoroalkanes; assay type: physicochemical
[2] = Aerosol exposure study of tacrolimus in rats, blood and lung pharmacokinetics; assay type: in vivo, male Sprague-dawley rats; conditions: rat; for AUClast / Tmax: lung; for Cmax: 30 min aerosol exposure
Protocol: A total of 54 male Sprague-dawley rats of approximately 250 g body weight were exposed to aerosols of tacrolimus (in a propylene-glycol:ethanol mixture) generated by jet-nebulizer for 30 minutes. […] Estimated deposited doses for the 30 minute exposure (assuming 10% deposition efficiency) were 0.072 and 0.256 mg/kg for the “low” and “high” dose groups. Lung and blood samples were obtained for groups of animals (n=3/time point).

[3] = Particle size of jet-nebulized tacrolimus aerosol; assay type: physicochemical; conditions: jet-nebulizer
[4] = Chemical stability of tacrolimus in ethanol as a function of concentration (HPLC); assay type: physicochemical; conditions: 55 °C, 26 days
Protocol: The chemical stability of tacrolimus in ethanol at different concentrations ranging from 100 to 400 mg/ml when stored at 55° C. was investigated.
Samples were analyzed using reverse phase HPLC with an acetonitrile-water gradient and UV detection. Samples were prepared in a non-aqueous medium, i.e., acetonitrile, to limit the interconversion of tautomers and to promote stability. Column temperature was set at 60° C. to further promote equilibrium between the cis-trans isomers. The gradient was set at 5% acetronitrile with a run time of 20 minutes. Acetic acid (0.002%) was added to mobile phase A (water). A solution of tacrolimus in 1:1 acetonitrile-water was incubated at 55° C. for 45 minutes to obtain an equilibrium mixture of the 3 tautomers so that retention times of each tautomer could be obtained.

calcineurin = conditions: as a calcineurin inhibitor; Kino et al. 1987; cited from earlier work
[5] = Chemical stability of tacrolimus in ethanol as a function of temperature; assay type: physicochemical; conditions: 200 mg/ml in ethanol, around day 30
Protocol: The degradant levels contained in solutions of tacrolimus dissolved in ethanol at a fixed concentration of 200 mg/ml were determined over time as a function of temperature. Samples were stored at the following temperatures: 35° C., 45° C., and 55° C.

[6] = Aerosol exposure study of tacrolimus in rats, blood and lung pharmacokinetics; assay type: in vivo, male Sprague-dawley rats; conditions: rat
[7] = male, Sprague-Dawley, inhaled or intranasal, blood, High Inhalation 0.256 mg/kg
[8] = male, Sprague-Dawley, inhaled or intranasal, blood, Low Inhalation 0.072 mg/kg
[9] = male, Sprague-Dawley, 0.4 mg/kg, blood, IV Bolus 0.400 mg/kg
[10] = male, Sprague-Dawley, 0.4 mg/kg, lung, IV Bolus 0.400 mg/kg

solubility in ethanol ([1]; ethanol): readily soluble
solubility in hydrofluoroalkanes ([1]; hydrofluoroalkanes): essentially insoluble
AUClast ([2]; High Inhalation 0.256 mg/kg): 22750 ng·h/g
AUClast ([2]; Low Inhalation 0.072 mg/kg): 19722 ng·h/g
Cmax [2, 7]: 149 ng/mL
AUC(0-t) [2, 7]: 194 ng·h/mL
Cmax [2, 8]: 40 ng/mL
AUC(0-t) [2, 8]: 121 ng·h/mL
half-life [2, 8]: 179 min
Tmax ([2]; male, Sprague-Dawley, inhaled or intranasal, High Inhalation 0.256 mg/kg): 4.98 min
Tmax ([2]; male, Sprague-Dawley, inhaled or intranasal, Low Inhalation 0.072 mg/kg): 4.98 min
MMAD (GSD) ([3]; 50 mg/ml solution in propylene-glycol:ethanol mixture): 2.53 (1.71) μm
MMAD (GSD) ([3]; 150 mg/ml solution in propylene-glycol:ethanol mixture): 2.56 (1.73) μm
degradation of tacrolimus ([4]; 100 mg/ml in ethanol): approximately 7%
degradation of tacrolimus ([4]; 400 mg/ml in ethanol): less than 1%
impurity level ([5]; stored at 35 °C): about 3%
impurity level ([5]; stored at 55 °C): about 11%
AUClast ([6]; lung, IV Bolus 0.400 mg/kg): 334095 ng·h/g
AUC(0-t) [6, 9]: 179 ng·h/mL
Cmax [6, 9]: 78.2 ng/mL
Tmax [6, 9]: 4.98 min
half-life [6, 9]: 114 min
Cmax [6, 10]: 19100 ng/g
Tmax [6, 10]: 4.98 min
half-life [6, 10]: 1470 min
Tmax [6, 7]: 4.98 min
half-life [6, 7]: 104 min
Tmax [6, 8]: 4.98 min
Cmax ([6]; male, Sprague-Dawley, inhaled or intranasal, lung, High Inhalation 0.256 mg/kg, 30 min aerosol exposure): 18100 ng/g
half-life ([6]; male, Sprague-Dawley, inhaled or intranasal, lung, High Inhalation 0.256 mg/kg): 1400 min
Cmax ([6]; male, Sprague-Dawley, inhaled or intranasal, lung, Low Inhalation 0.072 mg/kg, 30 min aerosol exposure): 9960 ng/g
half-life ([6]; male, Sprague-Dawley, inhaled or intranasal, lung, Low Inhalation 0.072 mg/kg): 548 min
SMILES: C=CC[C@@H]1/C=C(\C)C[C@H](C)C[C@H](OC)[C@H]2O[C@@](O)(C(=O)C(=O)N3CCCC[C@H]3C(=O)O[C@H](/C(C)=C/[C@@H]3CC[C@@H](O)[C@H](OC)C3)[C@H](C)[C@@H](O)CC1=O)[C@H](C)C[C@@H]2OC [tacrolimus, 17-allyl-1,14-dihydroxy-12-[2-(4-hydroxy-3-methoxycyclohexyl)-1-methylvinyl]-23,25-dimethyoxy-13,19,21,27-tetramethyl-11,28-dioxa-4-azatricyclo-[22.3.1.0^4,9]octacos-18-ene-2,3,10,16-tetraone]
potency relative to cyclosporine (calcineurin): up to one hundred times more potent
